From the NIST ThermoML archive (doi:10.1016/j.fluid.2005.01.012)
± gives the expanded uncertainty stated by the source.

Test: refractive index (Na D-line) (dimensionless)
Conditions: 293.1 K; 101.33 kPa; Liquid; Standard Abbe refractometry

Compound	refractive index
CCCc1ccccc1 [propylbenzene]	1.4915 ± 0.0008
CN1CCCC1=O [N-methylpyrrolidone]	1.4696 ± 0.0008

Continued, values first:

refractive index	Compound
1.4291 ± 0.0008	CCCCCCCCCCCCCC [tetradecane]
1.4362 ± 0.0008	CCCCCCCCCCCCCCCCC [heptadecane]
1.422 ± 0.0008	CCCCCCCCCCCC [dodecane]
